Reference: PMC6571685, “Rippled β-Sheet Formation by an Amyloid-β Fragment Indicates Expanded Scope of Sequence Space for Enantiomeric β-Sheet Peptide Coassembly” (Molecules, 2019)
Square brackets hold non-standard residues; d marks the D form. Peptide text beside a SMILES is read from it.

Tests used:
Type in all cases: physicochemical
[1] = Transmission electron microscopy of assemblies, fibril widths; settings: assembled 21 days in PBS pH 7.4, 5% DMSO, 37 °C, washed with water, uranyl acetate stain; ImageJ, averages from 100–150 measurements
Procedure: Dried, disaggregated peptide aliquots were prepared for assembly as in sedimentation assays, but in larger volumes (greater than or equal to 5 mL) and were allowed to assemble for 21 days so as to allow for complete assembly of all samples. Following assembly, samples were centrifuged at 4300 × g for 90 min at 17 °C to collect aggregates. The supernatant was then carefully removed and deionized water added, mixed, and centrifugation repeated to wash. After first wash, supernatant was again removed and deionized water added and mixed, at which point samples were spotted for TEM or SEM if desired (below). Centrifugation was repeated once more and supernatant removed, and then samples were frozen and lyophilized. Lyophilized pellets were then placed on the solid-state stage of a Shimadzu FTIR-8400S (Shimadzu Corporation, Nakagyo-ku, Kyoto, Japan) spectrometer and analyzed at a resolution of 4 cm^−1.
Fibrils for the TEM images reported were obtained from the same samples that were used for FTIR, above, at the same timepoint. […] TEM images were recorded on a Hitachi 7650 transmission electron microscope in high contrast mode with an accelerating voltage of 80 kV. Fibril widths were measured in ImageJ and are reported as averages from 100–150 measurements.

[2] = Visual observation of precipitate after dilution into PBS; settings: 110 μM total peptide, DMSO stock diluted into PBS pH 7.4, 5% v/v DMSO
Procedure: (§1) The self-assembly of L- and D-Ac-KLVFFAE-NH2 peptides was compared to the assembly properties of an equimolar mixture of the enantiomers. The peptides were prepared via standard Fmoc solid phase peptide synthesis, purified by reverse-phase HPLC, and characterized by MALDI-TOF mass spectrometry (see Materials and Methods section for experimental details and Supplementary Materials for characterization and purity data). Prior to self-assembly, peptides were disaggregated by sequential treatment with trifluoroacetic acid and hexafluoroisopropanol using a modified Wetzel protocol; peptide concentrations were determined by comparison to standard analytical HPLC curves (see Supplementary Materials for details), as described previously for studies with Aβ(16–22). Disaggregated, lyophilized peptides were then dissolved in DMSO and diluted into phosphate-buffered saline (pH 7.4) to reach total peptide concentrations of 110 μM (55 μM of each L- and D-enantiomer for mixed coassembly studies) (final DMSO concentration was 5% v/v). Upon dilution, peptides were incubated at 37 °C for assembly.

[3] = HPLC sedimentation assay (modified Wetzel protocol) of peptide self-assembly / coassembly
Procedure: as §1
Comparison of self-assembly and coassembly of Aβ(16–22) was conducted by a time-dependent sedimentation analysis. For these studies, we adapted Wetzel’s HPLC sedimentation protocol that we have previously used to assess Aβ(16–22) self-assembly. Aliquots of self-assembly and coassembly mixtures were removed over time and subjected to ultracentrifugation to remove fibrils and […] order aggregates after which the concentration of unaggregated peptide was quantified. In these analyses, equilibrium between monomer and fibril is eventually reached, with the final monomer concentration, or critical concentration (Cr), providing a quantitative characterization of the dynamic equilibrium between fibrils of length n and monomer with fibrils of length n + 1. […]
Sedimentation assays were performed using a modified Wetzel protocol. […] These solutions were then analyzed by analytical HPLC for correlation to a concentration curve to determine remaining monomer concentration.

width of assemblies (TEM) [1] | critical concentration (Cr), final monomer concentration at equilibrium ([3]; 110 μM total peptide (55 μM each enantiomer in mixture), PBS pH 7.4, 5% v/v DMSO, 0.1% NaN3, 37 °C, up to 21 days, aliquots centrifuged 436,000 × g 1 h 4 °C, supernatant monomer by analytical HPLC) | ΔG for addition of monomer to fibril at equilibrium ([3]; from Cr = 1/Ka, PBS pH 7.4, 5% DMSO, 37 °C, 110 μM total peptide) | Compound | visible precipitate immediately after gentle mixing [2] | time to reach equilibrium (constant monomer concentration) ([3]; 110 μM total peptide, PBS pH 7.4, 5% DMSO, 37 °C, monomer by HPLC after ultracentrifugation)
11.8 ± 0.5 nm | – | – | CC(=O)N[C@H](CCCCN)C(=O)N[C@H](CC(C)C)C(=O)N[C@@H](C(=O)N[C@H](Cc1ccccc1)C(=O)N[C@H](Cc1ccccc1)C(=O)N[C@H](C)C(=O)N[C@H](CCC(=O)O)C(N)=O)C(C)C [D-Aβ(16–22), D-Ac-KLVFFAE-NH2] (Ac-[dK][dL][dV][dF][dF][dA][dE]-NH2) | – | –
11.8 ± 0.5 nm | – | – | CC(=O)N[C@@H](CCCCN)C(=O)N[C@@H](CC(C)C)C(=O)N[C@H](C(=O)N[C@@H](Cc1ccccc1)C(=O)N[C@@H](Cc1ccccc1)C(=O)N[C@@H](C)C(=O)N[C@@H](CCC(=O)O)C(N)=O)C(C)C [L-Aβ(16–22), Ac-KLVFFAE-NH2] (Ac-KLVFFAE-NH2) | – | –
– | 24 ± 6 µM | -6.6 ± 0.2 kcal/mol | Ac-KLVFFAE-NH2 [single enantiomer Aβ(16–22), self-assembled single enantiomer Aβ(16–22) sample (L- or D-enantiomer alone), pleated β-sheet] | not in the single enantiomer self-assembly controls | required over two weeks to reach a constant monomer concentration
